The text below walks through data of patent US20080242546A1, “Synergistic herbicidal composition containing chloroacetanilides and picolinic acids” (Dow AgroSciences LLC, priority 2007, published 2008).

For one assay, the system named is CHEAL. As to the kind of experiment: Field trial in field corn, early postemergence weed control, visual rating. Conditions: early post. It counts as in vivo, chenopodium album L. As to the method: (§1) Field trials were established to evaluate weed control with herbicides applied at an early postemergence timing in field corn. Each trial was conducted as a randomized complete block design with three replications of each treatment in plots that ranged in size from 2.5×6.5 meters to 3.0×8.0 meters. Herbicide treatments in these trials included: • acetochlor at 1680 g/ha • clopyralid+picloram at 93.5+23.5 g/ha • clopyralid+picloram+aminopyralid at 72+24+12 g/ha • acetochlor+clopyralid+picloram at 1680+93.5+23.5 g/ha • acetochlor+clopyralid+picloram+aminopyralid at 1680+72+24+12 g/ha These herbicide treatments were broadcast sprayed postemergence over 1 to 3 leaf corn and 1 to 2 leaf weeds. The acetochlor formulation being used also contained furilazole safener.
(§2) The degree of weed control was visually evaluated and recorded at 40 to 71 days after application as a percent of weed control. Percent control is the total injury to the plants due to all factors including: stunting, malformation, chlorosis, necrosis, inhibition of emergence, and other types of plant injury. The control ratings range from 0 to 100 percent, where 0 represents no injury and 100 represents complete kill.
(§3) The Colby method represents a direct approach to measuring the synergistic activity of two herbicides.

The next assay has as its system POLCO. Described as above. The format is in vivo, polygonum convolvulus L. Conditions: early post. How it is done:
as §1, §2, §3

Another assay deals with POLAV. Described as above. Conditions: early post. It counts as in vivo, polygonum aviculare. As to the method:
as §1, §2, §3

The next assay relates to VIOAR. As to the kind of experiment: Field trial in oilseed rape, preemergence weed control, visual rating. It counts as in vivo, viola arvensis L. The following applies: preemergence to weeds. As to the method: (§4) E=X+Y-(XY/100), […] Additional field trials were established to evaluate weed control with herbicides applied at an […] timing in oilseed rape, prior to any weed emergence. Each trial was conducted as a randomized complete block design with three replications of each treatment in plots that ranged in size from 2.5×5.o meters to 3.0×6.0 meters. […] The degree of weed control was visually evaluated and recorded at 55 to 68 days after application as a percent of weed control. Percent control is the total injury to the plants due to all factors including: stunting, malformation, chlorosis, necrosis, inhibition of emergence, and other types of plant injury.

A further assay concerns PAPRH. The description is as above. It counts as in vivo, papaver rhoeas L. The following applies: preemergence to weeds. As to the method: as §4
Another assay concerns GALAP. Described as above. It counts as in vivo, galium aparine L. Conditions: preemergence to weeds. How it is done: as §4
Setting [1] is: 1680 g ai/ha, 40 to 71 days after application.
The mark [2] stands for this setting: 750 g ai/ha, 55 to 68 days after application.

For the compound `CCOCN(C(=O)CCl)c1c(C)cccc1CC` [acetochlor, 2-chloro-N-(ethoxymethyl)-N-(2-ethyl-6-methylphenyl)acetamide], the “control of CHEAL in words (synergistic action / acceptable control)” value in the assay with CHEAL is given as “did not provide acceptable control”. Besides, the “percent of weed control” value in the assay on POLCO (setting [1]) is 52%; in the assay on POLAV (setting [1]) it was 58%. The “control of POLCO in words (synergistic action / acceptable control)” value with POLCO was “did not provide acceptable control”. For the same compound, the “control of POLAV in words (synergistic action / acceptable control)” value with POLAV is given as “did not provide acceptable control”.

For the compound `Cc1cccc(C)c1N(Cn1cccn1)C(=O)CCl` [metazachlor, 2-chloro-N-(2,6-dimethylphenyl)-N-(1H-pyrazol-1-ylmethyl)acetamide], the “percent of weed control” value with VIOAR (setting [2]) came to 0%; with PAPRH (setting [2]), 10%; in the assay with GALAP (setting [2]), 53%. For the same compound, the “control of VIOAR in words (synergistic action / acceptable control)” value in the assay with VIOAR was “did not provide acceptable control”. For the same compound, the “control of PAPRH in words (synergistic action / acceptable control)” value in the assay with PAPRH was “did not provide acceptable control”. Also, in the assay with GALAP, the “control of GALAP in words (synergistic action / acceptable control)” value is “did not provide acceptable control”.
